Like-named read-outs stand apart in the source and are kept apart here. *1 amine or outer side, *2 acyl side, *3 side chain or, on linkers, in order; H or OH if unused. Where a SMILES comes first, the peptide text is derived from it. Bridges are numbered along the chain shown (N, C = ends). [ ]: non-standard residue; d: D form. The star is where a group is joined. hTyr(3S-OH,4S-OH,3'-OSO3H) = N[C@H](C(=O)O)[C@H](O)[C@@H](O)c1ccc(O)c(OS(=O)(=O)O)c1; Orn(4R-OH,5R-OH) = O=C([C@H](C[C@@H](O)[C@@H](O)N[*:3])N[*:1])[*:2]; Pro(3S-OH,4S-Me) = C[C@H]1CN[C@H](C(=O)O)[C@H]1O; X1 = CCCCCOc1ccc(-c2cc(-c3ccc(C(=O)*)cc3)no2)cc1; Gln(3R-OH) = NC(=O)C[C@@H](O)[C@H](N)C(=O)O; Hyp = O=C(O)[C@@H]1C[C@@H](O)CN1
Target: BTK (Homo sapiens, UniProt Q06187)
Sequence (Q06187 402-655 limits assumed): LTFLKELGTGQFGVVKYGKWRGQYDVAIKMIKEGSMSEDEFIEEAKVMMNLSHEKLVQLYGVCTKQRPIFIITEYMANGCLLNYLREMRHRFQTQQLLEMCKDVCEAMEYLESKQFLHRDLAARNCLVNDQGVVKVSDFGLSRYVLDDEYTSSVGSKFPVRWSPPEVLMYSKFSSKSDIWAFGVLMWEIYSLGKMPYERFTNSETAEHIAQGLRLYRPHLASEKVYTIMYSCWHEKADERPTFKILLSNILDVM
Assay: biochemical
[1] = read-out: BTK inhibition (%), 0.75 uM BTK, […] probe 3l, 15 min preincubation

Row | Compound | inhibition at 10 µM [1] [%] | inhibition at 10 µM (read-out: BTK inhibition (%)) [%]
1 | Cn1sc(=O)n(Cc2ccccc2)c1=O [PCM-0095428] | 4.8 | 
2 | COC1=C[C@@]23CCN(C)[C@@H](Cc4ccc(OC)c(O)c42)C3=CC1=O [PCM-0216320] |  | 3.1
3 | C=CC(=O)Nc1cccc(Nc2nc(Nc3ccc(N4CCN(C(C)=O)CC4)cc3OC)ncc2C(F)(F)F)c1 [PCM-0215245] | 95.9 | 
4 | COc1cc(C[C@@H](COC2OC(CO)C(O)C(O)C2O)[C@@H](COC2OC(CO)C(O)C(O)C2O)Cc2ccc(O)c(OC)c2)ccc1O (stereo partly shown) [PCM-0214976] | 2.3 | 
5 | CC(=O)OCC(CCn1cnc2cnc(N)nc21)COC(C)=O [PCM-0065613] | -20.2 | 
6 | O=C(O)COc1nn(Cc2ccccc2)c2ccccc12 [PCM-0216238] | -3.1 | 
7 | CCOC(=O)c1ccc(C#Cc2ccc3c(c2)C(C)(C)CCS3)nc1 [PCM-0095130] | -16.6 | 
8 | CCCNS(=O)(=O)Nc1ncnc(OCCOc2ncc(Br)cn2)c1-c1ccc(Br)cc1 [PCM-0095633] | 10 | 
9 | C=CCc1ccc(O)c(-c2cc(CC=C)ccc2O)c1 [PCM-0094865] | 16.3 | 
10 | CCNC(=O)C[C@@H]1N=C(c2ccc(Cl)cc2)c2cc(OC)ccc2-n2c(C)nnc21 [PCM-0215230] | -20.8 | 
11 | CC(=O)O[C@H]1C(=O)[C@@]2(C)[C@H]([C@H](OC(=O)c3ccccc3)[C@]3(O)C[C@H](O)C(C)=C1C3(C)C)[C@]1(OC(C)=O)CO[C@@H]1C[C@@H]2O [PCM-0215022] | -17.1 | 
12 | O=C(Cc1ccccc1)Nc1nnc(CCSCCc2nnc(NC(=O)Cc3ccccc3)s2)s1 [PCM-0215483] | 5.4 | 
13 | CC(C)C[C@H](NC(=O)CNC(=O)[C@H](Cc1ccc(O)cc1)NC(=O)[C@H](CO)NC(=O)[C@H](Cc1c[nH]c2ccccc12)NC(=O)[C@H](Cc1cnc[nH]1)NC(=O)[C@@H]1CCC(=O)N1)C(=O)N[C@@H](CCCN=C(N)N)C(=O)N1CCC[C@H]1C(=O)NCC(N)=O [PCM-0216273] | -5.1 | 
14 | CCN(CC)CCOCCOC(=O)C1(c2ccccc2)CCCC1 [PCM-0065027] | 4.7 | 
15 | CN(C)c1nc(N(C)C)nc(N(C)C)n1 [PCM-0064404] | 15.9 | 
16 | COc1ccc(CNCc2cccc3ccccc23)cc1 [PCM-0095454] | -19.5 | 
17 | Oc1ccc(-c2c(-c3ccccc3)nn3c(C(F)(F)F)cc(C(F)(F)F)nc23)cc1 [PCM-0216048] |  | 27.8
18 | O=P(O)(O)C(Cl)(Cl)P(=O)(O)O [PCM-0065307] | -23.8 | 
19 | N#CC(=C(N)Sc1ccc(N)cc1)c1ccccc1C(F)(F)F [PCM-0095011] | -28.3 | 
20 | O=C(O)[C@H]1O[C@@H](Oc2cc3oc(-c4ccccc4)cc(=O)c3c(O)c2O)[C@H](O)[C@@H](O)[C@@H]1O [PCM-0094823] | 14.8 | 
21 | O=C(NCC1(c2nc(-c3ccccc3)cs2)CCOCC1)c1cccc(-c2noc(C(F)(F)F)n2)c1 [PCM-0215333] | -9.3 | 
22 | C=C(C)[C@@H]1CC[C@]2(C)CC[C@]3(C)[C@H](CC[C@@H]4[C@@]5(C)CC[C@H](O)C(C)(C)[C@@H]5CC[C@]43C)[C@@H]12 [PCM-0215902] | -9.4 | 
23 | CC(C(=O)O)C(=O)O [PCM-0214910] |  | -6.2
24 | CC(=O)Nc1ccccc1 [PCM-0090657] | -14.5 | 

Row | Compound | inhibition at 10 µM [1] [%] | inhibition at 10 µM (read-out: BTK inhibition (%)) [%]
25 | NC(=O)c1ccc(OCCCN2CC3CCCC3C2)cc1 (stereo not shown) [PCM-0215865] | 6.2 | 
26 | Cc1ccc2oc(=O)ccc2c1 [PCM-0215023] | -3.9 | 
27 | c1ccc2[nH]c(-c3cscn3)nc2c1 [PCM-0086067] | -17.1 | 
28 | Cc1csc(-c2nnc(Nc3ccc(Oc4ncccc4-c4ccnc(N)n4)cc3)c3ccccc23)c1 [PCM-0095438] | 97.9 | 
29 | CCOC(=O)c1cc(O)c(O)c(O)c1 [PCM-0216263] | 9.3 | 
30 | C[C@H](CCC(=O)O)[C@H]1CC[C@H]2[C@@H]3CC[C@@H]4C[C@H](O)CC[C@]4(C)[C@H]3CC[C@]12C [PCM-0214742] | -8.6 | 
31 | CC1(C)CC[C@]2(C(=O)O)CC[C@]3(C)C(=CC[C@@H]4[C@@]5(C)C[C@@H](O)[C@H](O)C(C)(C)[C@@H]5CC[C@]43C)[C@@H]2C1 [PCM-0216611] | 20.1 | 
32 | Cc1ccc(Nc2ncc3c(n2)N(C)C(=O)N(c2cc(NC(=O)c4cccc(C(F)(F)F)c4)ccc2C)C3)cn1 [PCM-0215589] | 36.6 | 
33 | CO[C@H]1C[C@@H]2CC[C@@H](C)[C@@](O)(O2)C(=O)C(=O)N2CCCC[C@H]2C(=O)O[C@H]([C@H](C)C[C@@H]2CC[C@@H](OP(C)(C)=O)[C@H](OC)C2)CC(=O)[C@H](C)/C=C(\C)[C@@H](O)[C@@H](OC)C(=O)[C@H](C)C[C@H](C)/C=C/C=C/C=C/1C [PCM-0214600] | -16.6 | 
34 | CC[C@@H](N)CNc1ccnc(-c2cc(-c3cnn(C)c3)ccc2O)n1 [PCM-0215825] | 2.8 | 
35 | CC(C)(CNC(=O)c1cccc(-c2noc(C(F)(F)F)n2)c1)c1coc(-c2ccccc2)n1 [PCM-0215836] | -30.9 | 
36 | Nc1ccc(O)c(C(=O)O)c1 [PCM-0086222] | -9 | 
37 | CCOC(=O)/C=C\C(=O)OCC [PCM-0215691] | 10.1 | 
38 | CC(C)Oc1ccc(-c2cnc3c(-c4ccnc5ccccc45)cnn3c2)cc1 [PCM-0215300] | -1.5 | 
39 | CCC(C)n1ncn(-c2ccc(N3CCN(c4ccc(OC[C@H]5CO[C@](Cn6cncn6)(c6ccc(Cl)cc6Cl)O5)cc4)CC3)cc2)c1=O (stereo partly shown) [PCM-0090573] | -13.6 | 
40 | CCN(CC)CC(=O)Oc1ccc(NC(C)=O)cc1 [PCM-0215103] | -0.8 | 
41 | NC(=O)CC[C@@H](N)C(=O)O [PCM-0095186] | 6 | 
42 | O=C(NNc1ccccc1)c1ccncc1 [PCM-0095808] | -11.6 | 
43 | C[C@](N)(Cc1ccc(O)c(O)c1)C(=O)O [PCM-0065509] | -18.7 | 
44 | Cc1cc(Nc2cc(N)ncn2)c(=O)n2c1C(=O)NC21CCCCC1 [PCM-0203357] | 6.9 | 
45 | CCCCCOc1ccc(-c2cc(-c3ccc(C(=O)N[C@H]4C[C@@H](O)[C@@H](O)NC(=O)[C@@H]5[C@@H](O)[C@@H](C)CN5C(=O)[C@H]([C@H](O)CC(N)=O)NC(=O)[C@H]([C@H](O)[C@@H](O)c5ccc(O)c(OS(=O)(=O)O)c5)NC(=O)[C@@H]5C[C@@H](O)CN5C(=O)[C@H]([C@@H](C)O)NC4=O)cc3)no2)cc1 [PCM-0215341] (X1-[Orn(4R-OH,5R-OH)]T[Hyp][hTyr(3S-OH,4S-OH,3'-OSO3H)][Gln(3R-OH)][Pro(3S-OH,4S-Me)]; lactam 1-C) | 3.4 | 
46 | CCCn1c(NC(=O)c2cccc(C(N)=O)c2)nc2ccccc21 [PCM-0215951] | -12.4 | 
47 | O=C(O)c1ccc(-n2nc(-c3ccccc3O)nc2-c2ccccc2O)cc1 [PCM-0095168] | 36.6 | 
48 | O=C(COc1ccc(C(=O)c2ccccc2)cc1)NC1CCN(Cc2ccccc2)CC1 [PCM-0215280] | -33.2 | 

Row | Compound | inhibition at 10 µM [1] [%] | inhibition at 10 µM (read-out: BTK inhibition (%)) [%]
49 | CC1=C(/C=C/C(C)=C/C=C/C(C)=C/C(=O)O)C(C)(C)CCC1 [PCM-0065434] | -32.7 | 
50 | C[C@@H]1CC[C@]2(C(=O)O[C@@H]3O[C@H](CO)[C@@H](O)[C@H](O)[C@H]3O)CC[C@]3(C)C(=CC[C@@H]4[C@@]5(C)CC[C@H](O[C@@H]6OC[C@H](O)[C@H](O)[C@H]6O)C(C)(C)[C@@H]5CC[C@]43C)[C@@H]2[C@]1(C)O [PCM-0216435] | 7.7 | 
51 | CN(CC(=O)O)C(N)=NP(=O)(O)O [PCM-0215959] | -5.1 | 
52 | CCN(CC)CCN(Cc1ccc(-c2ccc(C(F)(F)F)cc2)cc1)C(=O)Cn1c(SCc2ccc(F)cc2)nc(=O)c2c1CCC2 [PCM-0095746] | -30.1 | 
53 | CCCCOc1c(C(=O)c2c(F)cc(C)cc2F)cnc2n[nH]cc12 [PCM-0095294] | -2.1 | 
54 | O=P1(NCCCl)OCCCN1CCCl (stereo not shown) [PCM-0086467] |  | -10.3
55 | COC(=O)N[C@H](C(=O)N1CCC[C@H]1C(=O)Nc1ccc([C@@H]2CC[C@@H](c3ccc(NC(=O)[C@@H]4CCCN4C(=O)[C@@H](NC(=O)OC)C(C)C)cc3)N2c2ccc(C(C)(C)C)cc2)cc1)C(C)C [PCM-0216056] | 18.5 | 
56 | CCCC(=O)NCCc1csc(-c2ccc(Cl)cc2)n1 [PCM-0215869] | 2.3 | 
57 | COc1c2occc2cc2ccc(=O)oc12 [PCM-0087924] | -19.5 | 
58 | CCN(CC)Cc1ccc2cc(COC(=O)Nc3ccc(C(=O)NO)cc3)ccc2c1 [PCM-0095219] | -10.1 | 
59 | C[C@@]12C[C@@]3(O)O[C@@H](O1)[C@]1(COC(=O)c4ccccc4)[C@H]3C[C@@]12O[C@@H]1O[C@H](COC(=O)c2ccccc2)[C@@H](O)[C@H](O)[C@H]1O [PCM-0216426] | -18.5 | 
60 | C=C[C@H]1CN2CC[C@H]1C[C@H]2[C@H](O)c1ccnc2ccccc12 [PCM-0094829] | -10.9 | 
61 | CCN(CC)CCOc1ccc(C(=C(Cl)c2ccccc2)c2ccccc2)cc1 [PCM-0090069] | 13.2 | 
62 | C[C@H](CCC(=O)NCCS(=O)(=O)O)[C@H]1CC[C@H]2[C@@H]3[C@@H](O)C[C@@H]4C[C@H](O)CC[C@]4(C)[C@H]3CC[C@]12C [PCM-0215517] | 5.4 | 
63 | CC(=O)O[C@H]1CC[C@H]2[C@@H]3CCC4=CC(=O)CCC4=C3C=C[C@]12C [PCM-0215062] |  | 2.3
64 | CC#Cc1cncc(-c2ccc3c(c2)[C@@]2(N=C(C)C(N)=N2)C2(CCC(OC)CC2)C3)c1 (stereo partly shown) [PCM-0215755] | 0 | 
65 | Nc1ccc(-c2cccc(C(=O)Nc3cnc4nc(N5CCOCC5)oc4c3)n2)cn1 [PCM-0215899] | 2.1 | 
66 | C[C@@H](c1nc(-c2ccc(C#N)cc2)cs1)[C@](O)(Cn1cncn1)c1cc(F)ccc1F [PCM-0214918] | -14 | 
67 | CC1(C)O[C@@H]2C[C@H]3[C@@H]4CCC5=CC(=O)C=C[C@]5(C)[C@H]4[C@@H](O)C[C@]3(C)[C@]2(C(=O)CO)O1 [PCM-0214648] | 4.8 | 
68 | CCCc1cc2c(N3CCN(C4=NCC(C)(C)S4)CC3)ncnc2s1 [PCM-0215393] | -24.7 | 
69 | OC[C@H]1O[C@@H](Oc2cc3c(O)cc(O)cc3[o+]c2-c2ccc(O)c(O)c2)[C@H](O)[C@@H](O)[C@@H]1O [PCM-0216543] | 23.9 | 
70 | O=C(O)c1cn(C2CC2)c2cc(Cl)c(F)cc2c1=O [PCM-0216105] | 7.7 | 

Source: paper PMC8041284, “Tunable Methacrylamides for Covalent Ligand Directed Release Chemistry” (Journal of the American Chemical Society, 2021)
